Reference: patent US20250314641A1, “OBLIQUE LINE SCANNER SYSTEMS AND METHODS FOR HIGH THROUGHPUT SINGLE MOLECULE TRACKING IN LIVING CELLS” (EIKON THERAPEUTICS, INC., priority 2022, published 2025)

Test system: Halo-PCNA labeled U2OS cells
Assay: Cell cycle phase assignment by machine learning model in Halo-PCNA U2OS cells
Assay type: cell-based
Conditions: 2 mM Thymidine (S-phase block) or 10 mM RO-3306 (G2-M block)
Description: FIGS. 20A-20F illustrate that OLS can be applied to capture the inter and intracellular heterogeneity of single protein dynamics. FIG. 20A depicts the analysis of sources of variance in SMT for KEAP1 measured under either OLS or HILO illumination. The contribution of cell to cell variation is 17-32 fold greater than that of FOV level or well to well variances, respectively. FIG. 20B depicts representative images of Halo-PCNA labeled cells treated with 2 mM Thymidine or 10 mM RO-3306 (top). Cell cycle prediction from a machine learning (ML) model used to color cell by cycle phase (bottom). FIG. 20C depicts the quantification of the fraction of cells in each cell phase in response to cycle block treatments in FIG. 20B. The following number of cells were analyzed for each condition: 34,067 for DMSO, 3,831 for RO-3306 and 6,044 for thymidine. […]
Time-lapse microscopy was conducted on Halo-PCNA labeled with 50 nM JFX650, to achieve near-saturating labeling, for 12 hours at 12 frames per hour (FIG. 21A). […] When cells in each cell phase were analyzed separately, it became apparent that the slow-moving population of PCNA was exclusively found in cell predicted to be in S-phase and that there was a marked decrease in the fast-moving population (FIG. 20E). […]
Cell cycle as provided above can be automatically determined using an image (e.g., an image of JF549-labeled PCNA). […]

Row | SMILES | fraction of cells assigned to cell cycle phases
1 | O=C1NC(=NCc2cccs2)S/C1=C\c1ccc2ncccc2c1 [RO-3306] | expected enrichment in the fraction of cells assigned to the respective cell phases
2 | Cc1cn([C@H]2C[C@H](O)[C@@H](CO)O2)c(=O)[nH]c1=O [thymidine] | expected enrichment in the fraction of cells assigned to the respective cell phases
